Experimental data reported in patent US9493430B2, “Biaryl- or heterocyclic biaryl-substituted cyclohexene derivative compounds as CETP inhibitors” (CHONG KUN DANG PHARMACEUTICAL CORP., priority 2013, dated 2016).

Tests used:
CETP = CETP (Homo sapiens (Human), UniProt P11597); assay: Test for inhibition of cholesteryl ester transfer (in vitro); type: biochemical; conditions: human plasma as CETP source, LDL from healthy persons as acceptor, rHDL-agarose donor, 37° C.
Excerpt: Test for Inhibition of Cholesteryl Ester Transfer (In Vitro)
1. Construction of Cholesteryl Ester Donor
To construct a cholesteryl ester donor to be used in the test, radiolabeled recombinant HDL containing […] (GE healthcare, TRK886, 3.5 μCi/mg of apoA-1) and apoA-1 was synthesized. Then, rHDL-agarose having the recombinant HDL immobilized thereon by CNBr-activated Sepharose 4B (Amersham Biosciences, Sweden) resin was used in the test.
2. Cholesteryl Ester Transfer Test
As a protein source for cholesteryl ester transfer, plasma from healthy persons was used, and as a cholesteryl ester receptor, LDL from healthy persons was used. Samples were treated with each test compound to final concentrations of 16, 80, 400, 2000 and 10000 nM and analyzed in duplicate. For the cholesteryl ester transfer test, 20 μl of plasma, 50 μl of LDL (0.25 mg/ml) and 50 μl of rHDL-agarose (0.25 mg/ml) were added, and a solution containing a test compound was added, followed by reaction at 37° C. Then, centrifugation was performed at 4° C. for 3 minutes to stop the reaction, and 150 μl of the supernatant was taken and transferred to a 96-well plate for radioactivity measurement, and the radioactivity of the plate was measured with a beta-ray detector.
(§1) 3. Statistical Processing
The ratio of [^3H]-cholesteryl oleate from HDL to LDL was calculated and used as a result value, and from the result value, IC50 value was calculated using GraphPad Prism 5.0.

golden Syrian hamsters = assay: Test for anti-hyperlipidemic effect in hamsters (in vivo); conditions: Mesocricetus auratus, po, 3 mg/kg orally for 5 days, blood 4 hours after final administration, vs control; for inhibition in vivo at 3 mg/kg: read-out: Decrease in LDL-c (%); for change in vivo at 3 mg/kg: read-out: Increase in HDL-c (%)
Excerpt: Test for Anti-Hyperlipidemic Effect in Hamsters (In Vivo)
In this test, 8-week-old male golden Syrian hamsters were used. The breeding room was maintained at constant temperature and constant humidity and a 12-hr light/12-hr dark cycle. The animals were allowed access to feed and water ad libitum.
2. Anti-Hyperlipidemic Test in Hamsters
The test animals were acclimated for 1 week before use in the test. The test animals were divided according to body weight into several groups, each consisting of 5-8 animals, and were then administered orally with a dose of 3 mg/kg. A solvent control and a CETP inhibitor were dissolved in imwitor 742: tween 80 (1:1) and administered orally for 5 days, and at 4 hours after the final administration, blood was collected from the heart. The collected blood was centrifuged at 3000 rpm for 15 minutes, and the separated serum was measured for HDL-Cholesterol (Biosystem) and LDL-Cholesterol (Biosystem) using a biochemical analysis instrument (ILab 300 plus, Instrumentation Laboratory).
as §1
All test results were expressed as Mean±SEM, and to evaluate the effect of each test group, each test group was compared with the control group using one-way ANOVA test (Dunnett's test, p<0.001).

Sequence of CETP (P11597 18-493): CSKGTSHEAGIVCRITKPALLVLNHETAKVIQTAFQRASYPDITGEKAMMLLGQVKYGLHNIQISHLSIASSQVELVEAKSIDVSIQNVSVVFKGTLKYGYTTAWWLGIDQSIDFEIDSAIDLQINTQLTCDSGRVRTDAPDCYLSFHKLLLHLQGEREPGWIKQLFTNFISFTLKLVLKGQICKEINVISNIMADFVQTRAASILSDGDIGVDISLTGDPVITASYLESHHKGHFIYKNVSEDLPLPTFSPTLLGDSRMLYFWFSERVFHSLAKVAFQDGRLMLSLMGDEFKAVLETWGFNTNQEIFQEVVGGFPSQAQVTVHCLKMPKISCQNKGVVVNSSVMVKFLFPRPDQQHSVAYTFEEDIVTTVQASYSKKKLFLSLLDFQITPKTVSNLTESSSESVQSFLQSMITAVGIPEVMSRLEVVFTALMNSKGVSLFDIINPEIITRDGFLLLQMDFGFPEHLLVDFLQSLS

| IC50 (CETP) [nM] | Compound | inhibition in vivo at 3 mg/kg (golden Syrian hamsters) [%] | change in vivo at 3 mg/kg (golden Syrian hamsters) [%] |
| --- | --- | --- | --- |
| 5.8 | COc1ccc(-c2ccc(C(=O)O)cc2C)cc1C1=C(CN2C(=O)O[C@H](c3cc(C(F)(F)F)cc(C(F)(F)F)c3)[C@@H]2C)CC(C)(C)CC1 [Compound 554, 3′-(2-(((4S,5R)-5-(3,5-bis(trifluoromethyl)phenyl)-4-methyl-2-oxooxazolidin-3-yl)methyl)-4,4-dimethylcyclohex-1-enyl)-4′-methoxy-2-methylbiphenyl-4-carboxylic acid] | 42 | 72 |
| 13 | COc1ncc(-c2ccc(C(=O)O)cc2F)cc1C1=C(CN2C(=O)O[C@H](c3cc(C(F)(F)F)cc(C(F)(F)F)c3)[C@@H]2C)CC(C)(C)CC1 [Compound 586, 4-(3-(2-(((4S,5R)-5-(3,5-bis(trifluoromethyl)phenyl)-4-methyl-2-oxooxazolidin-3-yl)methyl)-4,4-dimethylcyclohex-1-enyl)-2-methoxypyridin-5-yl)-3-fluorobenzoic acid] | 34 | 37 |
| 1.6 | COc1ccc(-c2ccc(C(=O)O)cc2C(F)(F)F)cc1C1=C(CN2C(=O)O[C@H](c3cc(C(F)(F)F)cc(C(F)(F)F)c3)[C@@H]2C)CC(C)(C)CC1 [Compound 618, 3′-(2-(((4S,5R)-5-(3,5-bis(trifluoromethyl)phenyl)-4-methyl-2-oxooxazolidin-3-yl)methyl)-4,4-dimethylcyclohex-1-enyl)-4′-methoxy-2-(trifluoromethyl)biphenyl-4-carboxylic acid] | 26 | 65 |
| 11.9 | Cc1cc(C(=O)O)ccc1-c1cc(F)cc(C2=C(CN3C(=O)O[C@H](c4cc(C(F)(F)F)cc(C(F)(F)F)c4)[C@@H]3C)CC(C)(C)CC2)c1 [Compound 650, 3′-(2-(((4S,5R)-5-(3,5-bis(trifluoromethyl)phenyl)-4-methyl-2-oxooxazolidin-3-yl)methyl)-4,4-dimethylcyclohex-1-enyl)-5′-fluoro-2-methylbiphenyl-4-carboxylic acid] | 24 | 50 |
| 5 | C[C@H]1[C@@H](c2cc(C(F)(F)F)cc(C(F)(F)F)c2)OC(=O)N1CC1=C(c2cc(F)cc(-c3ccc(C(=O)O)cc3C(F)(F)F)c2)CCC(C)(C)C1 [Compound 668, 3′-(2-(((4S,5R)-5-(3,5-bis(trifluoromethyl)phenyl)-4-methyl-2-oxooxazolidin-3-yl)methyl)-4,4-dimethylcyclohex-1-enyl)-5′-fluoro-2-(trifluoromethyl)biphenyl-4-carboxylic acid] | 16 | 44 |
| 15.9 | C[C@H]1[C@@H](c2cc(C(F)(F)F)cc(C(F)(F)F)c2)OC(=O)N1CC1=C(c2cc(-c3ccc(C(=O)O)cc3F)cc(C(F)(F)F)c2)CCC(C)(C)C1 [Compound 748, 3′-(2-(((4S,5R)-5-(3,5-bis(trifluoromethyl)phenyl)-4-methyl-2-oxooxazolidin-3-yl)methyl)-4,4-dimethylcyclohex-1-enyl)-2-fluoro-5′-(trifluoromethyl)biphenyl-4-carboxylic acid] |  |  |
| 5.9 | CCNC(=O)c1ccc(-c2ccc(F)c(C3=C(CN4C(=O)O[C@H](c5cc(C(F)(F)F)cc(C(F)(F)F)c5)[C@@H]4C)CC(C)(C)CC3)c2)c(C(F)(F)F)c1 [Compound 756, 3′-(2-(((4S,5R)-5-(3,5-bis(trifluoromethyl)phenyl)-4-methyl-2-oxooxazolidin-3-yl)methyl)-4,4-dimethylcyclohex-1-enyl)-N-ethyl-4′-fluoro-2-(trifluoromethyl)biphenyl-4-carboxamide] |  |  |
| 8.9 | COc1ccc(-c2ccc(C(=O)O)cc2C(F)(F)F)nc1C1=C(CN2C(=O)O[C@H](c3cc(C(F)(F)F)cc(C(F)(F)F)c3)[C@@H]2C)CC(C)(C)CC1 [Compound 764, 4-(2-(2-(((4S,5R)-5-(3,5-bis(trifluoromethyl)phenyl)-4-methyl-2-oxooxazolidin-3-yl)methyl)-4,4-dimethylcyclohex-1-enyl)-3-methoxypyridin-6-yl)-3-(trifluoromethyl)benzoic acid] |  |  |

The next lines start with the compound.

| Compound | IC50 (CETP) [nM] | inhibition in vivo at 3 mg/kg (golden Syrian hamsters) [%] | change in vivo at 3 mg/kg (golden Syrian hamsters) [%] |
| --- | --- | --- | --- |
| COc1ncc(-c2ccc(C(=O)O)cc2C)cc1C1=C(CN2C(=O)O[C@H](c3cc(C(F)(F)F)cc(C(F)(F)F)c3)[C@@H]2C)CC(C)(C)CC1 [Compound 557, 4-(3-(2-(((4S,5R)-5-(3,5-bis(trifluoromethyl)phenyl)-4-methyl-2-oxooxazolidin-3-yl)methyl)-4,4-dimethylcyclohex-1-enyl)-2-methoxypyridin-5-yl)-3-methylbenzoic acid] | 5.4 | 39 | 77 |
| COc1cc(F)c(-c2ccc(C(=O)O)cc2C)cc1C1=C(CN2C(=O)O[C@H](c3cc(C(F)(F)F)cc(C(F)(F)F)c3)[C@@H]2C)CC(C)(C)CC1 [Compound 574, 5′-(2-(((4S,5R)-5-(3,5-bis(trifluoromethyl)phenyl)-4-methyl-2-oxooxazolidin-3-yl)methyl)-4,4-dimethylcyclohex-1-enyl)-2′-fluoro-4′-methoxy-2-methylbiphenyl-4-carboxylic acid] | 3.9 | 36 | 41 |
| COc1ncc(-c2ccc(C(=O)O)cc2Cl)cc1C1=C(CN2C(=O)O[C@H](c3cc(C(F)(F)F)cc(C(F)(F)F)c3)[C@@H]2C)CC(C)(C)CC1 [Compound 584, 4-(3-(2-(((4S,5R)-5-(3,5-bis(trifluoromethyl)phenyl)-4-methyl-2-oxooxazolidin-3-yl)methyl)-4,4-dimethylcyclohex-1-enyl)-2-methoxypyridin-5-yl)-3-chlorobenzoic acid] | 5.3 | 40 | 46 |
| COc1ccc(-c2c(F)cc(C(=O)O)cc2F)cc1C1=C(CN2C(=O)O[C@H](c3cc(C(F)(F)F)cc(C(F)(F)F)c3)[C@@H]2C)CC(C)(C)CC1 [Compound 593, 3′-(2-(((4S,5R)-5-(3,5-bis(trifluoromethyl)phenyl)-4-methyl-2-oxooxazolidin-3-yl)methyl)-4,4-dimethylcyclohex-1-enyl)-2,6-difluoro-4′-methoxybiphenyl-4-carboxylic acid] | 1.5 | 29 | 61 |
| COc1cc(F)c(-c2ccc(C(=O)O)cc2Cl)cc1C1=C(CN2C(=O)O[C@H](c3cc(C(F)(F)F)cc(C(F)(F)F)c3)[C@@H]2C)CC(C)(C)CC1 [Compound 631, 5′-(2-(((4S,5R)-5-(3,5-bis(trifluoromethyl)phenyl)-4-methyl-2-oxooxazolidin-3-yl)methyl)-4,4-dimethylcyclohex-1-enyl)-2-chloro-2′-fluoro-4′-methoxybiphenyl-4-carboxylic acid] | 1.9 | 30 | 56 |
| COc1ccc(-c2ccc(C(=O)O)cc2Cl)cc1C1=C(CN2C(=O)O[C@H](c3cc(C(F)(F)F)cc(C(F)(F)F)c3)[C@@H]2C)CC(C)(C)CC1 [Compound 643, 3′-(2-(((4S,5R)-5-(3,5-bis(trifluoromethyl)phenyl)-4-methyl-2-oxooxazolidin-3-yl)methyl)-4,4-dimethylcyclohex-1-enyl)-2-chloro-4′-methoxybiphenyl-4-carboxylic acid] | 7.3 | 17 | 68 |
| COc1cc(F)c(-c2ccc(C(=O)O)cc2F)cc1C1=C(CN2C(=O)O[C@H](c3cc(C(F)(F)F)cc(C(F)(F)F)c3)[C@@H]2C)CC(C)(C)CC1 [Compound 661, 5′-(2-(((4S,5R)-5-(3,5-bis(trifluoromethyl)phenyl)-4-methyl-2-oxooxazolidin-3-yl)methyl)-4,4-dimethylcyclohex-1-enyl)-2,2′-difluoro-4′-methoxybiphenyl-4-carboxylic acid] | 2.5 | 20 | 53 |
| C[C@H]1[C@@H](c2cc(C(F)(F)F)cc(C(F)(F)F)c2)OC(=O)N1CC1=C(c2cc(-c3ccc(C(=O)O)cc3Cl)ccc2F)CCC(C)(C)C1 [Compound 739, 3′-(2-(((4S,5R)-5-(3,5-bis(trifluoromethyl)phenyl)-4-methyl-2-oxooxazolidin-3-yl)methyl)-4,4-dimethylcyclohex-1-enyl)-2-chloro-4′-fluorobiphenyl-4-carboxylic acid] | 20.3 |  |  |
